Experimental data reported in paper PMC8226474, “Design, Syntheses, and Bioevaluations of Some Novel N^2-Acryloylbenzohydrazides as Chemostimulants and Cytotoxic Agents” (Medicines, 2021).
Where “and” joins values, the source holds several entries; their conditions need not be identical. Identical values can stand only once. Like-named read-outs stand apart in the source and are kept apart here.

Columns and labels:
[1] = tested on: MDA-MB-231 cells; experiment: Cytotoxicity assay, MDA-MB-231 breast cancer cells; format: cell-based, human; details: for inhibition at 10 µM / inhibition at 100 µM / IC50: Homo sapiens, MDA-MB-231, 48 h; for inhibition at 10 µM / inhibition at 100 µM: read-out: percentage inhibition of MDA-MB-231 cells; for IC50 / SI (selectivity index): Table 2; for IC50: read-out: Neoplastic Cells IC50, MDA-MB-231; for SI (selectivity index): IC50 CRL 1790 / IC50 MDA-MB-231
From the text: (§1) Evaluation of the cytotoxic properties of the compounds presented in Table 1, Table 2, Table 3 and Table 4 was undertaken using the procedure outlined in [7]. In brief, the HCT 116 cells were obtained from the ATCC and cultured in McCoy’s 5A medium. The CRL 1790 cells were obtained from the ATCC and cultured in Minimum Essential Medium. The MCF-7 and MDA-MBA-231 cells were obtained from the Saskatchewan Cancer Agency and cultured in DMEM. In each assay the culture medium was supplemented with 10% fetal bovine serum and 1% penicillin–streptomycin antibiotics. The time of the bioassays was 48 h, unless indicated otherwise. All determinations were carried out in triplicate on three different occasions.

[2] = tested on: HCT 116 cells; experiment: Cytotoxicity assay, HCT 116 colon cancer cells; format: cell-based, human; details: for inhibition at 10 µM / inhibition at 100 µM / IC50: Homo sapiens, HCT-116, 48 h; for inhibition at 10 µM / inhibition at 100 µM: read-out: percentage inhibition of HCT 116 cells; for SI (selectivity index): IC50 CRL 1790 / IC50 HCT 116
From the text: as §1

[3] = tested on: MCF-7 cells; experiment: Cytotoxicity assay, MCF-7 breast cancer cells; format: cell-based, human; details: for inhibition at 10 µM / inhibition at 100 µM / IC50: Homo sapiens, MCF7, 48 h; for inhibition at 10 µM / inhibition at 100 µM: read-out: percentage inhibition of MCF-7 cells; for IC50 / SI (selectivity index): Table 2; for IC50: read-out: Neoplastic Cells IC50, MCF-7; for SI (selectivity index): IC50 CRL 1790 / IC50 MCF-7
From the text: as §1

[4] = tested on: CRL 1790 cells; experiment: Cytotoxicity assay, non-malignant CRL 1790 colon cells; format: cell-based
From the text: as §1

[5] = tested on: HCT 116 cells; experiment: Chemosensitization of HCT 116 cells: 1m for 24 h, then 2a or 5-FU for a further 24 h; format: cell-based, human; details: for Reduction in Live Cells % 2a (24 h): DMSO figure minus compound figure
From the text: as §1
The next phase of the investigation was to determine whether a representative compound in series 1 chemosensitizes HCT 116 cells to a 3,5-bis(benzylidene)-4-piperidone 2a. […] The colon cancer cells were incubated for 24 h with 1m, and then 2a was added and the incubation was continued for a further 24 h. Different concentrations of both 1m and 2a were employed, and the results are presented as entries 1–12 in Table 3. In addition, the effects of each of 1m, 2a, and 5-FU on HCT 116 cells (which are necessary for the evaluation of whether chemosensitivity occurs) were recorded, and are presented as entries 13–20 in Table 3.
The concentration of 1m in combination 4 is 5 µM, which after 48 h causes a percentage reduction of live cells to 86% (DMSO figure after 48 h, line 20) minus 75% (48 h, line 13), or 11%.
The concentration of 2a in combination 4 is 0.2 µM. This combination leads to a reduction of the percentage of live cells to 91% (DMSO figure after 24 h, line 20) minus 69%, or 22%.
The percentage reduction in live cells caused by a combination of 1m (5 µM) and 2a (0.2 µM), in the absence of chemosensitization, is 11% plus 22%, or 33%.
However, the percentage reduction in cells as indicated on line 4 is 86% (DMSO figure after 48 h) minus 12% (line 4, 48 h figure), or 74%.

[6] = Table 2, read-out: Neoplastic Cells IC50, HCT 116
[7] = Table 4, read-out: IC50 HCT 116
[8] = Homo sapiens, 48 h, Table 4, read-out: IC50 CRL 1790

melting point [°C] | Compound | inhibition at 10 µM [1] [%] | inhibition at 100 µM [1] [%] | inhibition at 10 µM [2] [%] | inhibition at 100 µM [2] [%] | inhibition at 10 µM [3] [%] | inhibition at 100 µM [3] [%] | IC50 [2, 7] [µM] | SI (selectivity index) ([2]; Table 4) | IC50 [4, 8] [µM] | other results
175 to 178 | COc1ccc(C=C2CN(CCC(=O)NNC(=O)c3ccc(OC)c(OC)c3)CC(=Cc3ccc(OC)cc3)C2=O)cc1 [7f, 3,5-Bis(4-methoxybenzylidene)-1-[3-(3,4-dimethoxyphenylcarbonylaminoamino)-3-oxo-1-propyl]-4-piperidone] | – | – | – | – | – | – | 2.87 ± 0.23 | 3.86 | 11.1 ± 0.52 | –
151 to 154 | COc1ccc(C(=O)NNC(=O)CCN2CC(=Cc3ccccc3)C(=O)C(=Cc3ccccc3)C2)cc1OC [7b, 3,5-Bis(benzylidene)-1-[3-(3,4-dimethoxylphenylcarbonylaminoamino)-3-oxo-1-propyl]-4-piperidone] | – | – | – | – | – | – | 3.15 ± 0.33 | 3.06 | 9.63 ± 1.62 | times more potent than 1m ([2]; ratio of IC50 values towards HCT 116 cells): 4.86 times
171 to 172 | CC(=O)NNC(=O)c1ccccc1 [6b, N^2-Acetylbenzohydrazide] | -22.6 ± 2.65 | -15.3 ± 3.46 | -4.89 ± 2.52 | 13.6 ± 3.03 | -93.8 ± 4.15 | -58.7 ± 3.24 | – | – | – | –
193 to 195 | O=C(CCNNC(=O)c1ccccc1)NNC(=O)c1ccccc1 [6c, N^2-[3-(Benzoylaminoamino)-1-oxopropyl]-N^1-benzoylhydrazine] | -16 ± 2.91 | 95.6 ± 4.22 | 18.6 ± 3.98 | 96.9 ± 1.86 | 16.1 ± 3.55 | 97.9 ± 2.68 | – | – | – | –

Continued, molecule first:

Compound | melting point [°C] | inhibition at 10 µM [1] [%] | inhibition at 100 µM [1] [%] | inhibition at 10 µM [2] [%] | inhibition at 100 µM [2] [%] | inhibition at 10 µM [3] [%] | inhibition at 100 µM [3] [%] | IC50 [2, 7] [µM] | SI (selectivity index) ([2]; Table 4) | IC50 [4, 8] [µM] | other results
C=CC(=O)NNC(=O)c1ccccc1Cl [1e, N^2-Acryloyl-2-chlorobenzohydrazide] | 165 to 167 | -7.15 ± 2.29 | 91.9 ± 4.53 | 4.3 ± 1.38 | 75.7 ± 1.65 | 8.66 ± 1.81 | 75.8 ± 2.76 | – | – | – | –
N[C@@H](Cc1ccc(N(CCCl)CCCl)cc1)C(=O)O [Melphalan, reference compound] | – | 28.6 ± 2.48 | > 100 | 33.9 ± 1.81 | 98.7 ± 1.12 | > 100 | > 100 | 33.2 ± 1.7 | >3.02 | – | IC50 [1]: 52.9 ± 2.32 µM; SI (selectivity index) [1]: >1.90; IC50 ([4]; Homo sapiens; Table 2; 48 h; read-out: Non-Malignant CRL 1790 Cells IC50): > 100 µM; IC50 ([4]; Homo sapiens; Table 4; 48 h; read-out: IC50 CRL 1790): > 100 µM; IC50 [2, 6]: 30.7 ± 2.73 µM; SI (selectivity index) ([2]; Table 2): >3.25; IC50 [3]: 12 ± 1.43 µM; SI (selectivity index) [3]: >8.32
C=CC(=O)NNC(=O)c1ccc(F)cc1 [1b, N^2-Acryloyl-4-fluorobenzohydrazide] | – | -7.37 ± 1.52 | 39.9 ± 2.51 | -2.35 ± 2.24 | 60.7 ± 3.22 | -40.1 ± 3.34 | 33.2 ± 3.13 | – | – | – | –
C=CC(=O)NNC(=O)c1ccc(Br)cc1 [1c, N^2-Acryloyl-4-bromobenzohydrazide] | 256 to 259 | -16.5 ± 1.45 | 88.7 ± 1.26 | -3.28 ± 1.5 | 87.9 ± 0.91 | -4.68 ± 3.17 | 46.6 ± 3.35 | – | – | – | –
O=c1[nH]cc(F)c(=O)[nH]1 [5-FU, 5-fluorouracil, reference compound] | – | 17.4 ± 2.97 | > 100 | 84.7 ± 2.53 | 94.1 ± 0.96 | 91.2 ± 3.03 | 99.3 ± 2.87 | 4.11 ± 0.22 | 2.64 | 10.8 ± 1.64 | IC50 [1]: 15.9 ± 1.65 µM; SI (selectivity index) [1]: 0.68; IC50 ([4]; Homo sapiens, 48 h, Table 2, read-out: Non-Malignant CRL 1790 Cells IC50): 10.8 ± 1.64 µM; IC50 [2, 6]: 3.77 ± 0.48 µM; SI (selectivity index) ([2]; Table 2): 2.92; IC50 [3]: 2 ± 0.25 µM; SI (selectivity index) [3]: 5.42; Reduction in Live Cells % 2a (24 h) ([5]; 5-FU 3 µM alone, 24 h): 13%; Live Cells % ([5]; entry 19: 5-FU 3 µM alone, 24 h): 78 ± 2.44%; Live Cells % ([5]; entry 19: 5-FU 3 µM alone, 48 h): 55 ± 1.37%
C=CC(=O)NNC(=O)c1ccc(Cl)c(Cl)c1 [1g, N^2-Acryloyl-3,4-dichlorobenzohydrazide] | 172 to 175 | -19.4 ± 3.01 | 139.8 ± 1.03 | 6.72 ± 1.97 | > 100 | -50.5 ± 3.27 | 97.4 ± 2.6 | – | – | – | –
C=CC(=O)NNC(=O)c1cccc(Cl)c1 [1f, N^2-Acryloyl-3-chlorobenzohydrazide] | 155 to 158 | 15.6 ± 3.14 | 98.7 ± 0.92 | 13.5 ± 1.79 | 95.7 ± 1.71 | -15.5 ± 3.38 | 85.9 ± 2.7 | – | – | – | –
C=CC(=O)NNC(=O)c1cccc(C)c1 [1i, N^2-Acryloyl-3-methylbenzohydrazide] | 138 to 140 | -5.91 ± 3.86 | 53.3 ± 2.89 | 15.4 ± 2.13 | 93.9 ± 3.35 | -82.8 ± 3.48 | 44.2 ± 2.96 | – | – | – | –
O=C1C(=Cc2ccccc2)CNCC1=Cc1ccccc1 [2a, 3,5-bis(benzylidene)-4-piperidone] | – | – | – | – | – | – | – | 0.37 ± 0.06 | 36.4 | 13.5 ± 1.99 | Reduction in Live Cells % 2a (24 h) ([5]; 2a 0.1 µM alone, 24 h): 8%; Reduction in Live Cells % 2a (24 h) ([5]; 2a 0.2 µM alone, 24 h): 22%; Reduction in Live Cells % 2a (24 h) ([5]; 2a 0.4 µM alone, 24 h): 43%; Live Cells % ([5]; entry 16: 2a 0.1 µM alone, 24 h): 83 ± 2.28%; Live Cells % ([5]; entry 16: 2a 0.1 µM alone, 48 h): 78 ± 2.12%; Live Cells % ([5]; entry 17: 2a 0.2 µM alone, 24 h): 69% and 69 ± 1.38%; Live Cells % ([5]; entry 17: 2a 0.2 µM alone, 48 h): 52 ± 1.15%; Live Cells % ([5]; entry 18: 2a 0.4 µM alone, 24 h): 48 ± 1.20%; Live Cells % ([5]; entry 18: 2a 0.4 µM alone, 48 h): 32 ± 1.50%
